Type in all cases: in vivo
In test [1] the test system is Phytophthora infestans. As to the kind of experiment: whole plant or invertebrate. The settings on record: for pest or weed control at 200 ppm / pest or weed control at 100 ppm: Phytophthora infestans, in Solanum lycopersicum, 24 h; for pest or weed control at 200 ppm: foliar, read-out: PHYTIN percent control of disease, 200 ppm on foliage, tomato, one-day protectant test; for pest or weed control at 100 ppm: read-out: PHYTIN percent control of disease, 100 ppm (footnote a), tomato, one-day protectant test.

Test [2] has as its system Magnaporthe grisea. In words: whole plant or invertebrate. The note with it: for pest or weed control at 200 ppm: Pyricularia oryzae, in Oryza sativa, foliar, 24 h, read-out: PYRIOR percent control of disease, 200 ppm on foliage, rice, one-day protectant test.
In test [3] the test system is Erysiphe graminis f. sp. tritici. In words: Powdery Mildew of Wheat (ERYSGT), whole-plant fungicide test. The settings on record: Blumeria graminis, 24 h, one-day protectant test, read-out: ERYSGT percent control of disease; for pest or weed control at 200 ppm: foliar, 200 ppm on foliage; for pest or weed control at 100 ppm: 100 ppm (footnote a).
Test [4] has as its system Puccinia recondita tritici. In words: Leaf Rust of Wheat (PUCCRT), whole-plant fungicide test. The note with it: one-day protectant test; for pest or weed control at 200 ppm / pest or weed control at 100 ppm: Puccinia recondita, 24 h, read-out: PUCCRT percent control of disease; for pest or weed control at 200 ppm: foliar; for pest or weed control at 100 ppm: 100 ppm (footnote a).

For test [5], the system named is Colletotricum lagenarium. In words: Cucumber Anthracnose (COLLLA), whole-plant fungicide test. The settings on record: one-day protectant test; for pest or weed control at 200 ppm / pest or weed control at 100 ppm: Cucumis sativus, 24 h, read-out: COLLLA percent control of disease; for pest or weed control at 200 ppm: foliar; for pest or weed control at 100 ppm: 100 ppm (footnote a).

Test [6] relates to Cochliobolus sativus. As to the kind of experiment: Spot Blotch of Wheat (COCHSA), whole-plant fungicide test. The note with it: Bipolaris sorokiniana, foliar, 24 h, 200 ppm on foliage, one-day protectant test, read-out: COCHSA percent control of disease. On the procedure: The activity of the compounds as effective fungicides was determined by applying the compounds to plants and observing control of fungal disease. The compounds were formulated at 200 ppm in 10 vol. percent acetone plus 90 vol. percent Triton X water (deionized water 99.99 wt. percent+0.01 wt. percent Triton X100), giving a “formulated test compound.” In a few cases, compounds were formulated at 100, 75 or 8.3 ppm rather than 200 ppm in 10 vol. percent acetone plus 90 vol. percent Triton X water (deionized water 99.99 wt. percent+0.01 wt. percent Triton X100), giving a ‘formulated test compound’. The compounds were tested for ability to control plant diseases in a 1-day protectant test (1DP) or a 2-day curative test (2DC). Formulated test compounds were applied to plants using a turn table sprayer fitted with two opposing air atomization nozzles which delivered approximately 1500 L/ha of spray volume. Plants were inoculated with spores of the fungus the next day (1DP), then incubated in an environment conducive to disease development. In a few cases, the compounds were tested for ability to control plant disease in a two-day curative test. Plants were inoculated with spores of the fungus two days prior to compound application, and incubated in an environment conducive to disease development both before and after compound application (2DC). For all types of tests, disease severity was evaluated 4 to 28 days later, depending on the speed of disease development.
Each pot contained 3-8 seedlings. These plants were sprayed until wet with the formulated test compound. On the following day, the leaves were inoculated with an aqueous spore suspension of Cochliobolus sativus and the plants were kept in high humidity for one to two days to permit spores to germinate and infect the leaf. The plants were then transferred to a greenhouse until disease developed on untreated control plants.
The following table presents the activity of typical compounds of the present invention when evaluated in these experiments. The effectiveness of the test compounds in controlling disease was determined by assessing the severity of disease on treated plants, then converting the severity to percent control based on the level of disease on untreated, inoculated plants.
TABLE 4: Activity of compounds as fungicides. Data are the level at which the given disease was controlled when the given compound was applied to the foliage of the plant at 200 ppm. In a few cases (noted in the table) the compound was applied to the plant at 100, 75 or 8.3 ppm. The plant was inoculated with the fungus one day after treatment. In a few cases (noted in the table) the plant was inoculated with the fungus two days before treatment.

The test system of test [7] is Leptosphaeria nodorum. As to the kind of experiment: Glume Blotch of Wheat (LEPTNO), whole-plant fungicide test. The note with it: 200 ppm on foliage, one-day protectant test; for pest or weed control at 200 ppm: Parastagonospora nodorum, foliar, 24 h, read-out: LEPTNO percent control of disease.
For test [8], the system named is Septoria tritici. As to the kind of experiment: Speckled Leaf Blotch of Wheat (SEPTTR), whole-plant fungicide test. The settings on record: Zymoseptoria tritici, foliar, 24 h, 200 ppm on foliage, one-day protectant test, read-out: SEPTTR percent control of disease.
The subject of test [9] is Erysiphe cichoracaerum. As to the kind of experiment: Cucumber Powdery Mildew (ERYSCI), whole-plant fungicide test. The note with it: Erysiphe, foliar, 24 h, 200 ppm on foliage, one-day protectant test, read-out: ERYSCI percent control of disease.

`CC(C)c1ccc(C(C)Nc2ncnc3scc(Cl)c23)cc1` (centres unmarked) [Compound 1, (5-Chlorothieno[2,3-d]pyrimidin-4-yl)-[1-(4-isopropylphenyl)ethyl]amine]: the “PHYTIN percent control of disease” value in test [1] (200 ppm on foliage, tomato, one-day protectant test) was “** (** is 50-79 percent control of disease)”. Also, in test [2] (200 ppm on foliage, rice, one-day protectant test), the “PYRIOR percent control of disease” value was “*** (*** is 80-100 percent control of disease)”. Besides, the pest or weed control at 200 ppm in [3] fell in the range of 80 to 100%; in [6], 0 to 49%. Besides, the “PUCCRT percent control of disease” value in [4] (200 ppm on foliage) is on record as “*** (*** is 80-100 percent control of disease)”. In addition, the “COLLLA percent control of disease” value in [5] (200 ppm on foliage) is reported as “* (* is 0-49 percent control of disease)”. For the same compound, the “LEPTNO percent control of disease” value in test [7] was “*** (*** is 80-100 percent control of disease)”.

As for `CC(Nc1ncnc2scc(Cl)c12)c1ccc(OCc2ccccc2)cc1` (centres unmarked) [Compound 2], the pest or weed control at 200 ppm in test [1] is 80 to 100%; in [2] it was 80 to 100%; in test [3], 80 to 100%; in test [8] it was 80 to 100%; in [4] (200 ppm on foliage) it was 80 to 100%; in [5] (200 ppm on foliage), 0 to 49%. The pest or weed control at 200 ppm in test [6] is 0 to 49%; in test [7] it was 80 to 100%.

As to `Clc1csc2ncnc(NCCc3ccc(OCc4ccccc4)cc3)c12` [Compound 3], the pest or weed control at 200 ppm in test [1] is 80 to 100%; in test [2] it was 80 to 100%; in test [3] it was 80 to 100%; in test [8], 80 to 100%; in [4] (200 ppm on foliage) it was 80 to 100%; in test [5] (200 ppm on foliage), 0 to 49%. Moreover, the pest or weed control at 200 ppm in test [6] lay within 0 to 49%; in [7] it was 80 to 100%.

In the case of `CC(Nc1ncnc2scc(Cl)c12)c1ccc(OCc2ccc(OC(F)(F)F)cc2)cc1` (centres unmarked) [Compound 5], the pest or weed control at 200 ppm fell in the range of 50 to 79% in [2]; 50 to 79% in [3]; 80 to 100% in test [8]; 80 to 100% in [4] (200 ppm on foliage); 0 to 49% in [5] (200 ppm on foliage); 50 to 79% in [7]. In [9], the pest or weed control at 200 ppm was 80 to 100%.

For `FC(F)(F)Oc1ccc(COc2ccc(CCNc3ncnc4scc(Cl)c34)cc2)cc1` [Compound 6], the pest or weed control at 200 ppm in test [2] fell in the range of 50 to 79%; in [3] it was 0 to 49%; in [8] it was 50 to 79%; in [4] (200 ppm on foliage), 80 to 100%; in test [7], 50 to 79%; in [9], 80 to 100%.

For `Clc1csc2ncnc(NC3CCc4ccccc43)c12` (centres unmarked) [Compound 8], the pest or weed control at 200 ppm in test [1] was in the range of 0 to 49%; in [2], 50 to 79%; in test [3] it was 0 to 49%; in [8] it was 0 to 49%; in test [4] (200 ppm on foliage) it was 50 to 79%; in test [5] (200 ppm on foliage), 0 to 49%. In addition, the pest or weed control at 200 ppm in test [7] and in test [9] was 0 to 49% in each case.

`Clc1csc2ncnc(NC3CCCc4ccccc43)c12` (centres unmarked) [Compound 10]: the pest or weed control at 200 ppm was in the range of 0 to 49% in [1]; 50 to 79% in [2]; 0 to 49% in test [3]; 0 to 49% in test [8]; 0 to 49% in test [4] (200 ppm on foliage); 0 to 49% in test [5] (200 ppm on foliage). Also, the pest or weed control at 200 ppm in test [7] and in test [9] was 0 to 49% each time.

For the compound `CC(Nc1ncnc2scc(Cl)c12)c1ccc(Cl)nc1` (centres unmarked) [Compound 28], the pest or weed control at 200 ppm in [2] lay in the range of 80 to 100%; in test [3] it was 0 to 49%; in test [8], 80 to 100%; in [4] (200 ppm on foliage) it was 80 to 100%; in test [6] it was 0 to 49%; in [7], 80 to 100%.

As to `CC(Nc1ncnc2scc(Cl)c12)c1ccc2c(c1)OCO2` (centres unmarked) [Compound 61], the pest or weed control at 200 ppm lay in the range of 0 to 49% in test [1]; 50 to 79% in test [2]; 50 to 79% in [8]; 80 to 100% in [4] (200 ppm on foliage); 0 to 49% in test [5] (200 ppm on foliage); 50 to 79% in test [6]. The pest or weed control at 200 ppm in test [7] and in test [9] was 80 to 100% each time.

As to `COCC(Nc1ncnc2scc(Cl)c12)c1ccccc1` (centres unmarked) [Compound 62], the pest or weed control at 200 ppm was in the range of 0 to 49% in test [1]; 80 to 100% in test [2]; 50 to 79% in test [8]; 80 to 100% in test [4] (200 ppm on foliage); 0 to 49% in test [5] (200 ppm on foliage); 0 to 49% in test [6]. In addition, the pest or weed control at 200 ppm in [7] lay in the range of 0 to 49%; in [9], 80 to 100%.

Take `COc1ccc(C(C)Nc2ncnc3scc(Cl)c23)cc1C` (centres unmarked) [Compound 63]: the pest or weed control at 200 ppm in test [1] lay in the range of 50 to 79%; in [2], 80 to 100%; in test [4] (200 ppm on foliage) it was 80 to 100%; in test [5] (200 ppm on foliage), 0 to 49%; in [7] it was 50 to 79%; in [9] it was 80 to 100%. In addition, the pest or weed control at 100 ppm in [3] fell in the range of 80 to 100%.

`Clc1ccc(CCNc2ncnc3scc(Cl)c23)cn1` [Compound 65]: the pest or weed control at 200 ppm in [1] is 80 to 100%; in test [2], 0 to 49%; in test [4] (200 ppm on foliage) it was 80 to 100%; in test [5] (200 ppm on foliage), 0 to 49%; in [7], 0 to 49%; in [9] it was 80 to 100%. Also, the pest or weed control at 100 ppm in test [3] fell in the range of 0 to 49%.

For the compound `COc1ccc(C(C)Nc2ncnc3scc(Cl)c23)cc1F` (centres unmarked) [Compound 66], the pest or weed control at 200 ppm lay within 50 to 79% in [1]; 80 to 100% in test [2]; 80 to 100% in [4] (200 ppm on foliage); 0 to 49% in [5] (200 ppm on foliage); 0 to 49% in [7]; 80 to 100% in [9]. In test [3], the pest or weed control at 100 ppm lay in the range of 80 to 100%.

On to `COc1ccc(C(C)Nc2ncnc3scc(F)c23)cc1` (centres unmarked) [Compound 76, (5-Fluorothieno[2,3-d]pyrimidin-4-yl)-[1-(4-methoxyphenyl)ethyl]amine], for which the pest or weed control at 100 ppm fell in the range of 80 to 100% in test [1], 0 to 49% in [3], 80 to 100% in test [4] and 50 to 79% in test [5].

`COc1ccc(C(C)Nc2ncnc3scc(F)c23)cn1` (centres unmarked) [Compound 77]: the pest or weed control at 100 ppm was in the range of 80 to 100% in [1], 0 to 49% in test [3], 80 to 100% in test [4] and 50 to 79% in test [5].

Take `CC(Nc1ncnc2scc(F)c12)c1ccc(OCC(F)(F)F)cc1` (centres unmarked) [Compound 78]: the pest or weed control at 100 ppm in test [1], in [3], in [4] and in test [5] was 80 to 100% each time.

The values above are taken from US8008487B2, “Substituted thieno[2,3-D]pyrimidines as fungicides” (priority 2004, dated 2011).
